Source: patent US12415786B2, “Substituted 2-heteroarylaminobenzenes and the salts thereof and their use as herbicidal agents” (Bayer Aktiengesellschaft, priority 2019, dated 2025)

Assays:
Type in all cases: in vivo
Poa annua [1] = assay: Herbicidal early post-emergence action (96-well microtiter plates), POAAN; details: 1900 g/ha, scored 9 to 12 days after treatment, 100% = plants have died, 0% = like untreated control plants
Procedure, shortened: (§1)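 Weed seeds grown in quartz sand in 96-well microtiter plates in a climate chamber and treated at the cotyledon stage, 5 to 7 days after sowing, with EC formulations at 2200 L/ha water and a rate equivalent to 1900 g/ha. Visual scoring after 9 to 12 days against untreated controls (0% = control, 100% = dead).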

Agrostis tenuis = assay: Herbicidal early post-emergence action (96-well microtiter plates), AGSTE; details: 1900 g/ha, scored 9 to 12 days after treatment, 100% = plants have died, 0% = like untreated control plants
Procedure, shortened: as §1

Echinochloa crus-galli [2] = assay: Herbicidal pre-emergence action (greenhouse pots), ECHCG; details: 1280 g/ha, visual scoring after about 3 weeks vs untreated controls
Procedure, shortened: (§2)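 Pre-emergence soil-surface spray at 1280 g/ha of WP- or EC-formulated compound with 0.5% additive and 600 L/ha water. Assessment after about 3 weeks in the greenhouse, as visual percent activity where 100% means plants died.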

Setaria viridis [3] = assay: Herbicidal post-emergence action (greenhouse pots), SETVI; details: 1280 g/ha, rated after about 3 weeks, 100% = plants have died, 0% = like untreated control plants
Procedure, shortened: (§3)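 Weeds were sown in sandy loam and treated at the one-leaf stage, 2–3 weeks after sowing. WP or EC formulations were applied with 0.5% additive at 600 L/ha water, at a rate of 1280 g/ha. Activity was rated visually after about 3 weeks against untreated controls (0% = untreated, 100% = dead).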

Amaranthus retroflexus [4] = assay: Herbicidal pre-emergence action (greenhouse pots), AMARE; details: 1280 g/ha, visual scoring after about 3 weeks vs untreated controls
Procedure, shortened: as §2

Setaria viridis [5] = assay: Herbicidal pre-emergence action (greenhouse pots), SETVI; details: 1280 g/ha, visual scoring after about 3 weeks vs untreated controls
Procedure, shortened: as §2

Matricaria inodora [6] = assay: Herbicidal pre-emergence action (greenhouse pots), MATIN; details: 1280 g/ha, visual scoring after about 3 weeks vs untreated controls
Procedure, shortened: as §2

Matricaria inodora [7] = assay: Herbicidal post-emergence action (greenhouse pots), MATIN; details: 1280 g/ha, visual rating about 3 weeks after treatment vs untreated controls
Description: (§4) In the examples and tables below, the following abbreviations are used: • Undesired Plants/Weeds: • ABUTH: Abutilon theophrasti • AGSTE: Agrostis tenuis • AMARE Amaranthus retroflexus • ECHCG: Echinochloa crus-galli • LOLRI: Lolium rigidum • MATIN: Matricaria inodora • POAAN: Poa annua • SETVI: Setaria viridis • STEME: Stellaria media A. Herbicidal Early Post-Emergence Action Seeds of mono- and dicotyledonous weed plants were placed in plastic pots in sandy loam soil (doubly sown with in each case one species of mono- or dicotyledonous weed plants per pot), covered with soil and cultivated in a greenhouse under controlled growth conditions. 2 to 3 weeks after sowing, the test plants were treated at the one-leaf stage. The compounds of the invention, formulated in the form of wettable powders (WP) or as emulsion concentrates (EC), were applied onto the green parts of the plants as aqueous suspension or emulsion with addition of 0.5% additive at a water application rate of 600 liters per hectare (converted). After the test plants had been kept in the greenhouse under optimum growth conditions for about 3 weeks, the activity of the preparations was rated visually in comparison to untreated controls. For example, 100% activity=the plants have died, 0% activity=like untreated control plants. Tables B1-B8 below show the effects of selected compounds of the general formula (I) according to Table 1 above on various harmful plants and an application rate corresponding to 1280 g/ha, which were obtained by the experimental procedure mentioned above.

Abutilon theophrasti [8] = assay: Herbicidal pre-emergence action (greenhouse pots), ABUTH; details: 1280 g/ha, visual scoring after about 3 weeks vs untreated controls
Procedure, shortened: as §2

Poa annua [9] = assay: Herbicidal pre-emergence action (greenhouse pots), POAAN; details: 1280 g/ha, visual scoring after about 3 weeks vs untreated controls
Procedure, shortened: as §2

Abutilon theophrasti [10] = assay: Herbicidal post-emergence action (greenhouse pots), ABUTH; details: 1280 g/ha, visual rating about 3 weeks after treatment vs untreated controls
Procedure, shortened: as §3

Stellaria media [11] = assay: Herbicidal pre-emergence action (greenhouse pots), STEME; details: 1280 g/ha, visual scoring after about 3 weeks vs untreated controls
Procedure, shortened: as §2

Lolium rigidum [12] = assay: Herbicidal post-emergence action (greenhouse pots), LOLRI; details: 1280 g/ha, rated after about 3 weeks, 100% = plants have died, 0% = like untreated control plants
Description: as §4

Lolium rigidum [13] = assay: Herbicidal pre-emergence action (greenhouse pots), LOLRI; details: 1280 g/ha, visual scoring after about 3 weeks vs untreated controls
Description: In the examples and tables below, the following abbreviations are used: • Undesired Plants/Weeds: • ABUTH: Abutilon theophrasti • AGSTE: Agrostis tenuis • AMARE Amaranthus retroflexus • ECHCG: Echinochloa crus-galli • LOLRI: Lolium rigidum • MATIN: Matricaria inodora • POAAN: Poa annua • SETVI: Setaria viridis • STEME: Stellaria media A. Herbicidal Early Post-Emergence Action Seeds of mono- and dicotyledonous weed plants were placed in plastic pots in sandy loam soil (doubly sown with one species each of mono- or dicotyledonous weed plants per pot) and covered with soil. The compounds of the invention, formulated in the form of wettable powders (WP) or as emulsion concentrates (EC), were then applied onto the surface of the covering soil as aqueous suspension or emulsion with addition of 0.5% additive at a water application rate of 600 liters per hectare (converted). After the treatment, the pots were placed in a greenhouse and kept under good growth conditions for the test plants. After about 3 weeks, the effect of the preparations was scored visually in comparison with untreated controls as percentages. For example, 100% activity=the plants have died, 0% activity=like untreated control plants. Tables C1-C8 below show the effects of selected compounds of the general formula (I) according to Table 1 above on various harmful plants and an application rate corresponding to 1280 g/ha, which were obtained by the experimental procedure mentioned above.

Poa annua [14] = assay: Herbicidal post-emergence action (greenhouse pots), POAAN; details: 1280 g/ha, visual rating about 3 weeks after treatment vs untreated controls
Procedure, shortened: as §3

Amaranthus retroflexus [15] = assay: Herbicidal post-emergence action (greenhouse pots), AMARE; details: 1280 g/ha, visual rating about 3 weeks after treatment vs untreated controls
Procedure, shortened: as §3

Stellaria media [16] = assay: Herbicidal post-emergence action (greenhouse pots), STEME; details: 1280 g/ha, visual rating about 3 weeks after treatment vs untreated controls
Procedure, shortened: as §3

Echinochloa crus-galli [17] = assay: Herbicidal post-emergence action (greenhouse pots), ECHCG; details: 1280 g/ha, rated after about 3 weeks, 100% = plants have died, 0% = like untreated control plants
Procedure, shortened: as §3

| SMILES | POAAN (herbicidal activity, scored visually in comparison to untreated controls) (Poa annua [1]) [%] | AGSTE (herbicidal activity, scored visually in comparison to untreated controls) (Agrostis tenuis) [%] | herbicidal activity ECHCG (Echinochloa crus-galli [2]) [%] | SETVI (herbicidal activity, rated visually in comparison to untreated controls) (Setaria viridis [3]) [%] | herbicidal activity AMARE (Amaranthus retroflexus [4]) [%] | herbicidal activity SETVI (Setaria viridis [5]) [%] | herbicidal activity MATIN (Matricaria inodora [6]) [%] | herbicidal activity MATIN (Matricaria inodora [7]) [%] | herbicidal activity ABUTH (Abutilon theophrasti [8]) [%] | herbicidal activity POAAN (Poa annua [9]) [%] | herbicidal activity ABUTH (Abutilon theophrasti [10]) [%] | herbicidal activity STEME (Stellaria media [11]) [%] | LOLRI (herbicidal activity, rated visually in comparison to untreated controls) (Lolium rigidum [12]) [%] | herbicidal activity LOLRI (Lolium rigidum [13]) [%] | herbicidal activity POAAN (Poa annua [14]) [%] | herbicidal activity AMARE (Amaranthus retroflexus [15]) [%] | herbicidal activity STEME (Stellaria media [16]) [%] | ECHCG (herbicidal activity, rated visually in comparison to untreated controls) (Echinochloa crus-galli [17]) [%] |
| --- | --- | --- | --- | --- | --- | --- | --- | --- | --- | --- | --- | --- | --- | --- | --- | --- | --- | --- |
| N#Cc1cccc(Nc2ncc(Cl)cn2)c1Oc1ccc(F)nc1 [Example 3-55] | 100 | 100 | 100 | 90 | 100 | 100 | 100 | 90 | 100 | 100 | 100 | 100 | 90 | 100 | 100 | 100 | 100 |  |
| N#Cc1cccc(Nc2ncc(F)cn2)c1Oc1ccc(F)nc1 [Example 3-53] | 100 | 100 | 100 | 90 | 100 | 100 | 100 | 90 | 100 | 100 | 100 | 100 | 90 | 100 | 100 | 100 | 100 | 100 |
| Fc1ccc(Oc2c(Cl)cccc2Nc2ncc(Cl)cn2)cc1 [Example 1-235] | 100 | 100 | 90 |  | 100 | 100 | 100 | 80 |  | 100 | 100 | 100 |  |  | 100 | 100 | 100 | 100 |
| N#Cc1cccc(Nc2ncc(Cl)cn2)c1Oc1ccc(F)cc1 [Example 1-286] | 100 | 100 |  | 100 | 100 | 100 | 100 |  | 90 | 100 | 100 | 100 | 90 | 90 | 100 | 100 | 100 | 100 |
| N#Cc1cccc(Nc2ncc(F)cn2)c1Oc1ccc(F)cc1 [Example 1-267] | 100 | 100 | 100 |  | 100 | 100 | 100 |  | 100 | 100 | 100 | 100 | 90 | 100 | 100 | 100 | 100 | 100 |
| Fc1ccc(Oc2c(F)cccc2Nc2ncc(Cl)cn2)cc1 [Example 1-204] | 100 | 100 | 100 | 100 | 100 | 100 | 90 |  |  | 100 | 100 |  | 90 |  | 100 |  | 100 | 100 |
